The record followed here is US20250073302A1, “CYCLIC PEPTIDES AS PROTEASOME STIMULATORS” (Purdue Research Foundation, priority 2023, published 2025).

Where “and” joins values, the source holds several entries; their conditions need not be identical. Equal values may be shown once. Non-standard residues stand in square brackets, D forms with d. Residues, ends and D or L forms follow the SMILES beside them. dBpa = N[C@H](Cc1ccc(C(=O)c2ccccc2)cc1)C(=O)O; dPhe(3,4-F2) = N[C@H](Cc1ccc(F)c(F)c1)C(=O)O; dPhe(3-F) = N[C@H](Cc1cccc(F)c1)C(=O)O; dPhe(4-F) = N[C@H](Cc1ccc(F)cc1)C(=O)O; aThr = C[C@H](O)[C@H](N)C(=O)O

In series [1] the target is T1, 20S CP.
T1 construct: purchased South Bay
As to the kind of experiment: TAS-1 biochemical assay (20S CP stimulation). The arrangement: key to Emax: % of DMSO control rate (percent stimulation); key to TAS-1: % of DMSO control rate of TAS-1 hydrolysis. The following applies: for EC50: dose-response curve; for EC50 / Emax: 20S CP stimulation; for Emax: maximal response of dose-response curve, in %; for TAS-1: percent stimulation of 20S CP, rate of TAS-1 hydrolysis normalized against DMSO, compounds tested at 10 μM, 5 nM 20S CP. As to the method:
Each compound was initially tested at 10 μM. Each well contained […] of 11.4 μM TAS-1 solution in Tris HCl (50 mM, pH 7.4) along with 5 nM of 20 sCP (South Bay). 1 μL of the test compound, control, or DMSO was added to the desired well to obtain a final DMSO concentration of 2%, with the total volume being 50 μL. Compounds were tested in three replicates that each had technical triplicates. The fluorescence was recorded using a SynergyNeo 2, where the excitation and emission was set to 335 nm and 493 nm. The plate reader was heated to 37° C. The fluorescence was recorded every 90 seconds over a 1-hour period. A simple linear regression was performed on the data plotted against time to obtain the rate of hydrolysis of TAS-1 by the 20S CP. The data was then normalized against DMSO to get the percent stimulation.

In series [2] the test system is T2, cytosolic proteasome in HEK293 T cells.
T2 construct: endogenous in cells; host or cells: HEK 293T
As to the kind of experiment: Flow cytometry assay of proteasome stimulation in cellulo (epoxomicin probe). The series is classed as cell-based. The following applies: for In-Cellulo: 10 μM stimulator, 2.5 μM epoxomicin probe, 1 hour, flow cytometry (FITC). From the text: Flow cytometry allows for the study of proteasomal activity in physiologically relevant conditions and presents a high-throughput alternative to traditional gel electrophoresis and western blotting techniques. To test the assay, the covalent fluorescent-based probe was applied in HEK293 T cells to quantify proteasome stimulation of CyPPSs alone and in the presence of the known proteasome stimulator miconazole and the known proteasome inhibitor MG132. The covalent fluorescent-based probe utilized an epoxy-ketone warhead that interacts with the β5 subunit of the proteasome, forming a covalent attachment and fluorescently tagging the proteasome. The addition of the CyPPSs induces a significant shift in the intracellular fluorescence (FIG. 6). This shift validated that CyPPSs can stimulate cytosolic proteasome in cellulo. […] However, their activity was lower than what would be expected based on their in vitro activity. This may be due to incomplete cellular uptake or escape from the endosomes. […] This is likely due to a combination of effects, including the inability to stimulate the proteasome (FIGS. 2A and 2B) as well as the generally poor cell permeability and stability of linear peptides.
Confluent HEK 293T cells were seeded into sterilized 2 mL Fisherbrand Eppendorf tubes in FBS free Dulbecco's Modified Eagle Medium (DMEM) at a concentration of 300,000 cells per tube. The cells were centrifuged at 1000 g for 5 minutes. The supernatant was removed, and the cells were resuspended in 500 μL of a 10 μM stimulator solution in FBS free DMEM. Cells were spun down at 1000 g for 5 minutes, and the supernatant was again removed. Cells were then resuspended in 500 μL of a 10 μM stimulator 2.5 μM epoxomicin probe in FBS-free DMEM and incubated for 1 hour at 37° C. Cells were again centrifuged at 1000 g for 5 minutes. Supernatant was then removed, and cells were washed once with cold PBS. Cells were then resuspended in 50 μL of cold PBS and placed on ice. Cellular fluorescence was measured by collecting 50,000 events using the FITC channel of a BD Accuri C6 Flow Cytometer and analyzed using FlowJo.
For orientation: Flow cytometry measures light scatter and fluorescence of single cells or particles in a stream.

The next series deals with human red blood cells. Nature of the series: Hemolysis assay. The series is classed as cell-based. The following applies: percent hemolysis, 1 hour at 37° C., table title 15 uM, method 20 μM, in %. The method, then: Whole human blood was purchased at BiolVT and used prior to its expiration. 100 μL blood was added to a 1.5 mL Eppendorf tub with 500 μL of sterile 0.9% NaCl. The tube was inverted multiple times to mix the solution. This mixture was centrifuged at 500 g for 7 minutes. The supernatant was extracted utilizing a pipette. The pellet was washed 2 more times. After the final wash, 800 μL of Red Blood Cell (RBC) buffer was added to the pellet to resuspend the red blood cells. 4 μL of the compounds (20 μM in DMSO, final concentration), 76 μL RBC buffer, and 40 μL resuspended red blood cells were added to a 96 U-well plate (VWR) and incubated for 1 hour at 37° C. The plate was spun at 500 g for 5 minutes. […] of the supernatant was transferred to a 96 flat-well plate. The absorbance was read at 540 nm utilizing a SpectraMax iD3 platereader. Percent hemolysis was measured from the average absorbance of the positive and negative controls. A minimum of 3 biological triplicates were performed.

Series [3] has as its system T1, 20S CP. As to the kind of experiment: Purified protein degradation assay. In kind it is biochemical. The note with it: 10 uM CyPPS, 5 nM 20S CP, 200 ng purified protein, 1 hour at 37° C. The method, then: Proteins were diluted to 50 ng/μL in Tris HCl (50 mM, pH 7.6). The CyPPS were diluted to 30 μM in Tris HCl, with 6% DMSO. The 20S CP (South Bay) was diluted to 15 nM with Tris HCl. Each protein was performed with a latent level, basal level, and CyPPS in triplicate. The latent level was prepared with 4 μL protein and 8 μL of 3% DMSO in Tris HCl. The basal level contained 4 μL protein, 4 μL 20S CP, and 4 μL 6% DMSO in Tris HCl. The CyPPS was performed with 4 μL protein, 4 μL 20S CP, and 4 μL 30 μM CyPPS. The samples were incubated for 1 hour at 37° C. 4 μL of 4×SDS gel loading buffer was added and heated for 5 minutes at 95° C. The samples were run on a 15-well gradient gel for SDS-PAGE, stained with Coomassie, imaged with an imaging system, and quantified with ImageJ. Analysis was done via GraphPad PRISM9.

Take `CC(C)C[C@H]1NC(=O)[C@H]([C@H](C)O)NC(=O)[C@@H](C)NC(=O)[C@H](CCCNC(=N)N)NC(=O)[C@@H](Cc2ccccc2)NC(=O)[C@H](Cc2ccccc2)NC1=O` [CyPPS1, TLFFRA [SEQ ID NO: 1]] (cyclo(F[dF]R[dA][aThr][dL])): at 20S CP [1], the EC50 is 6.4 µM, the Emax is reported as 282.9 and the TAS-1 was found to be 339.5 ± 15.7. Moreover, the “percent stimulation of the proteasome in the SNaPP library screen” value in the series on 20S CP [1] (library of 45 cyclic peptides, TAS-1 assay) is given as “highest percent stimulation”. Besides, the In-Cellulo in series [2] was 235.1 ± 5.5. For the same compound, in series [2] (10 μM, flow cytometry), the “cellular stimulation of the proteasome (in words)” value was “significant cellular stimulation of the proteasome”. The compound also displayed a Hemolysis in the series on human red blood cells of 13 ± 1. For the same compound, in the series with 20S CP [3] (highly disordered protein), the “proteasomal degradation of α-synuclein” value is on record as “greatly enhanced”. For the same compound, in the series on 20S CP [3] (low disordered protein), the “proteasomal degradation of GAPDH” value is “little-to-no effect” and the “proteasomal degradation of lysozyme” value is given as “little-to-no effect”.
With `CC(C)C[C@H]1NC(=O)[C@H](CC(=O)O)NC(=O)[C@@H](C)NC(=O)[C@H](CCCNC(=N)N)NC(=O)[C@@H](Cc2ccccc2)NC(=O)[C@H](Cc2ccccc2)NC1=O` [CyPPS8, DLFFRA [SEQ ID NO: 8]] (cyclo(D[dL]F[dF]R[dA])), in the series on 20S CP [1] (TAS-1 assay), the “20S CP stimulatory activity (in words, SAR compared to CyPPS1)” value is “maintained stimulatory activity”. Moreover, on 20S CP [1], the EC50 was 14.2 µM, the Emax is 701.4 and the TAS-1 worked out at 372.2 ± 12.1. Also, in series [2], the In-Cellulo came to 161.0 ± 31.7. The compound further had a Hemolysis in the series with human red blood cells of 0 ± 0.
`CC(C)[C@H]1NC(=O)[C@H]([C@@H](C)O)NC(=O)[C@@H](C)NC(=O)[C@H](CCCNC(=N)N)NC(=O)[C@@H](Cc2ccccc2)NC(=O)[C@H](Cc2ccccc2)NC1=O` [CyPPS13, TVFFRA [SEQ ID NO: 13]] (cyclo(T[dV]F[dF]R[dA])): in the series on 20S CP [1] (TAS-1 assay), the “20S CP stimulatory activity (in words, SAR compared to CyPPS1)” value is “retained activity”. At 20S CP [1], the EC50 is 4.1 µM and 4 µM; the Emax is 393 and 393.8; the TAS-1 was 422.4 ± 18.5. The In-Cellulo in series [2] was determined as 173.7 ± 13.0. In the series with human red blood cells, this compound gave a Hemolysis of 5 ± 2.
For “TLFXRA [SEQ ID NO: 18] (cyclo(T[dL]F[dPhe(4-F)]R[dA]); SMILES CC(C)C[C@H]1NC(=O)[C@H]([C@@H](C)O)NC(=O)[C@@H](C)NC(=O)[C@H](CCCNC(=N)N)NC(=O)[C@@H](Cc2ccc(F)cc2)NC(=O)[C@H](Cc2ccccc2)NC1=O) [CyPPS18, cyclic peptide; AA1 Thr, AA2 D-Leu, AA3 Phe, AA4 D-Phe (4F), AA5 Arg, AA6 D-Ala]”, the “20S CP stimulatory activity (in words, SAR compared to CyPPS1)” value with 20S CP [1] (TAS-1 assay) is listed as “decreased activity”.
The same measure, in the same setting: next, “TLFXRA [SEQ ID NO: 19] (cyclo(T[dL]F[dPhe(3-F)]R[dA]); SMILES CC(C)C[C@H]1NC(=O)[C@H]([C@@H](C)O)NC(=O)[C@@H](C)NC(=O)[C@H](CCCNC(=N)N)NC(=O)[C@@H](Cc2cccc(F)c2)NC(=O)[C@H](Cc2ccccc2)NC1=O) [CyPPS19, cyclic peptide; AA1 Thr, AA2 D-Leu, AA3 Phe, AA4 D-Phe (3F), AA5 Arg, AA6 D-Ala]”: “retained activity”; “TLFXRA [SEQ ID NO: 20] (cyclo(T[dL]F[dPhe(3,4-F2)]R[dA]); SMILES CC(C)C[C@H]1NC(=O)[C@H]([C@@H](C)O)NC(=O)[C@@H](C)NC(=O)[C@H](CCCNC(=N)N)NC(=O)[C@@H](Cc2ccc(F)c(F)c2)NC(=O)[C@H](Cc2ccccc2)NC1=O) [CyPPS20, cyclic peptide; AA1 Thr, AA2 D-Leu, AA3 Phe, AA4 D-Phe (3, 4F), AA5 Arg, AA6 D-Ala]”: “retained activity”; “TLFXRA [SEQ ID NO: 21] (cyclo(T[dL]F[dBpa]R[dA]); SMILES CC(C)C[C@H]1NC(=O)[C@H]([C@@H](C)O)NC(=O)[C@@H](C)NC(=O)[C@H](CCCNC(=N)N)NC(=O)[C@@H](Cc2ccc(C(=O)c3ccccc3)cc2)NC(=O)[C@H](Cc2ccccc2)NC1=O) [CyPPS21, cyclic peptide; AA1 Thr, AA2 D-Leu, AA3 Phe, AA4 D-BPA, AA5 Arg, AA6 D-Ala]”: “stimulatory activity was maintained”.
Turning to “TLFYRA [SEQ ID NO: 17] (cyclo(T[dL]F[dY]R[dA]); SMILES CC(C)C[C@H]1NC(=O)[C@H]([C@@H](C)O)NC(=O)[C@@H](C)NC(=O)[C@H](CCCNC(=N)N)NC(=O)[C@@H](Cc2ccc(O)cc2)NC(=O)[C@H](Cc2ccccc2)NC1=O) [CyPPS17, cyclic peptide; AA1 Thr, AA2 D-Leu, AA3 Phe, AA4 D-Tyr, AA5 Arg, AA6 D-Ala]”, the “20S CP stimulatory activity (in words, SAR compared to CyPPS1)” value in the series with 20S CP [1] (TAS-1 assay) is listed as “decline in stimulatory activity”.
The same measure, in the same setting: next, “TLYFRA [SEQ ID NO: 16] (cyclo(T[dL]Y[dF]R[dA]); SMILES CC(C)C[C@H]1NC(=O)[C@H]([C@@H](C)O)NC(=O)[C@@H](C)NC(=O)[C@H](CCCNC(=N)N)NC(=O)[C@@H](Cc2ccccc2)NC(=O)[C@H](Cc2ccc(O)cc2)NC1=O) [CyPPS16, cyclic peptide; AA1 Thr, AA2 D-Leu, AA3 Tyr, AA4 D-Phe, AA5 Arg, AA6 D-Ala]”: “decline in stimulatory activity”; “VLFFRA [SEQ ID NO: 9] (cyclo(V[dL]F[dF]R[dA]); SMILES CC(C)C[C@H]1NC(=O)[C@H](C(C)C)NC(=O)[C@@H](C)NC(=O)[C@H](CCCNC(=N)N)NC(=O)[C@@H](Cc2ccccc2)NC(=O)[C@H](Cc2ccccc2)NC1=O) [CyPPS9, cyclic peptide; AA1 Val, AA2 D-Leu, AA3 Phe, AA4 D-Phe, AA5 Arg, AA6 D-Ala]”: “maintained stimulatory activity”.

The EC50 is the midpoint of the concentration-response curve.
